Entries after “also recorded” stand apart in the source; their conditions may differ.
Tests used:
MIA PaCa-2 cells = test: Co-treatment with gemcitabine, MIA PaCa-2 pancreatic cancer cells; type: cell-based, human; conditions: GEM-sensitive, 15 μM IAP inhibitor, 24 hrs co-treatment
BxPC3 cells = test: Co-treatment with gemcitabine, BxPC3 pancreatic cancer cells; type: cell-based, human; conditions: 15 μM IAP inhibitor, 24 hrs co-treatment
PANC-1 cells = test: Co-treatment with gemcitabine, PANC-1 pancreatic cancer cells; type: cell-based, human; conditions: GEM-resistant, 15 μM IAP inhibitor, 24 hrs co-treatment
MOLT-4 cells [1] = conditions: cited from earlier work
L363 cells = test: MTS assay, multiple myeloma cell line L363; type: cell-based, human; conditions: LCL161-sensitive MM cell line, 48 hr, 20 μM
BIR2 domain of XIAP = BIR2 domain of XIAP (Homo sapiens, UniProt P98170); test: DELFIA assay, BIR2 domain of XIAP; type: binding; conditions: supplementary Table S1
BIR2 domain of XIAP, sequence (P98170 152-236 limits assumed): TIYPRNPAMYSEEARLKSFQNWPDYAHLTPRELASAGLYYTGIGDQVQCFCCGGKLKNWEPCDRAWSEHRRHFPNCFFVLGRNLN

H929 cells = test: MTS assay, multiple myeloma cell line H929; type: cell-based, human; conditions: LCL161-sensitive MM cell line, 48 hr, 20 μM
MOLT-4 cells [2] = test: Cell viability of MOLT-4 cells; type: cell-based, human; conditions: MOLT-4, 48 hrs

In the case of `CN[C@@H](C)C(=O)N[C@@H](Cc1cc(C)c(C(F)(F)F)cc1F)C(=O)N1CCC[C@H]1C(=O)N[C@@H]1CCc2c(F)cccc21` [Compound 31], the “Effect in combination with gemcitabine, MIA PaCa-2” value (MIA PaCa-2 cells) is reported as “modest significant additive effect”, the “Effect in combination with gemcitabine, BxPC3” value (BxPC3 cells) is reported as “significantly restore growth inhibition by gemcitabine; also recorded: significant synergism” and the “Effect in combination with gemcitabine, PANC-1” value (PANC-1 cells) is reported as “significantly restore growth inhibition by gemcitabine; also recorded: significant synergism”.
For `CN[C@@H](C)C(=O)N[C@H](C(=O)N1CCC[C@H]1c1nc(C(=O)c2ccc(F)cc2)cs1)C1CCCCC1` [LCL161], the “Sensitivity of MOLT-4 cell line” value (MOLT-4 cells [1]) is listed as “insensitive”, the “Growth inhibition L363” value (L363 cells) is listed as “particularly active” and the “Affinity for the BIR2 domain of XIAP” value (BIR2 domain of XIAP) is listed as “only modest affinity”. The “Growth inhibition H929” value (H929 cells) was “particularly active”, the “Effect in combination with gemcitabine, BxPC3” value (BxPC3 cells) was “significantly restore growth inhibition by gemcitabine” and the “Activity in cell viability assay” value (MOLT-4 cells [2]) was “not particularly active; also recorded: less potent than both compound 34 and compound 31”. For the same compound, the “Effect in combination with gemcitabine, PANC-1” value (PANC-1 cells) was “significantly restore growth inhibition by gemcitabine”.

Source: article PMC7583350 (Journal of medicinal chemistry, 2018)
